The experiment has as its system IMQ-induced psoriasis in mice. Briefly: Imiquimod-induced psoriasis model in mice, PASI scoring of back skin inflammation. It counts as in vivo, Balb/c mice. The text has this: As already explained, psoriasis is a chronic inflammatory skin disorder. It occurs when the immune system mistakes the skin cells as a pathogen, and sends out faulty signals that speed up the proliferation of skin cells. Imiquimod (IMQ) is a potent immune activator that induces and exacerbates psoriasis when applied topically. Daily application of IMQ on mouse back skin induces inflamed scaly skin lesions resembling plaque type psoriasis. IMQ-induced psoriasis in mice has been long used as a model for human psoriasis.
The efficacy of oral administration of a FABP4-inhibitor to treat psoriasis in the IMQ-induced model in mice was tested.
The test was carried out using Balb/c mice (Envigo RMS (Israel) Ltd), average (±SD) body weight at study initiation was 18.2±0.81 g. Animals were fed ad libitum a commercial rodent diet (Teklad Certified Global 18% Protein Diet, Harlan cat #2018SC). Animals had free access to sterilized and acidified drinking water (pH between 2.5 and 3.5).
The tests included six groups of 3-10 mice per group, as follows: • one naïve (no IMQ) group; • one Vehicle control group, the vehicle formulation being 10% 1-methyl-2-pyrrolidone and 5% Cremophor EL in water for injection (WFI); • one treated group that received Cortisone acetate as a positive control—one tablet (25 mg each, Rekah Pharm) was triturated with a mortar. The powder was dissolved in 2.5 ml WFI yielding 10 mg/ml. The compound was administrated per-os at 12.5 mg/kg BW (body weight) mouse of the compound once daily for six days starting the first day of IMQ application (Day 1); and • three treated groups that received BMS (i.e. Test Item) at three doses—5, 15 and 30 mg/kg. BMS powder (Cayman Chemical) was dissolved in ethanol to create a 30 mg/ml solution. This stock solution was diluted in the Vehicle to create three different concentrations 0.5, 1.5 and 3 mg/ml. A new aqueous solution was prepared in each day. BMS was administrated per-os once daily for six days starting the first day of IMQ application (Day 1).
IMQ-induction: A daily topical dose of 62.5 mg of commercially available IMQ cream (5%) (Aldara; 3M Pharmaceuticals) was applied to animals from all the groups except for the naïve group on the shaved back for six consecutive days, translated to a daily dose of 3.125 mg of the active compound.
Experiment conditions: All animals except for the naïve group received IMQ cream (Aldara™ 5% cream, #3 Pharmaceuticals) applied on the back skin daily for six consecutive days starting on Day 1 (˜60 mg/mouse). The Test Item, Vehicle and Cortisone acetate were administered per-os daily for 6 days. During the study morbidity and mortality, body weight (BW), clinical signs, and Psoriasis Area and Severity Index (PASI) scoring were performed and representative pictures were taken. The animals were sacrificed on Day 9.
Scoring was performed by a trained observer in a “blinded” way, i.e., being unaware of the treatment. To score the severity of inflammation of the back skin, the clinical PASI scoring was employed. Erythema, scaling, and thickening were scored independently on a scale from 0 to 4: 0, none; 1, slight; 2, moderate; 3, marked; 4, very marked. The cumulative score (erythema plus scaling plus thickening), PASI scoring, served as a measure of the severity of inflammation (scale 0-12).

[1] abbreviates: 15 mg/kg per-os once daily for six days.
[2] abbreviates: BMS treated groups (5, 15 and 30 mg/kg per-os), Day 7.

Structures are written as SMILES.

As to `CCc1c(-c2ccccc2)c(-c2ccccc2)nn1-c1ccccc1-c1cccc(OCC(=O)O)c1` [BMS, 2-[[2′-(5-ethyl-3,4-diphenyl-1H-pyrazol-1-yl)[1,1′-biphenyl]-3-yl]oxy]-acetic acid], under setting [1], the “erythema severity score, comparison of doses” value is “best results”; the “scaling severity score, comparison of doses” value is given as “best results”; the “skin thickness severity score, comparison of doses” value is “best results”. In addition, the “severity of skin inflammation (PASI scoring)” value (BMS treated groups (5, 15 and 30 mg/kg per-os once daily for six days), Day 7) is “significant amelioration”. Further, under setting [2], the erythema severity score entry is reported as “significant amelioration”, the scaling severity score result was “significant amelioration” and the “skin thickness severity score” value was “significant amelioration”. Where the note is “middle dose 15 mg/kg per-os once daily for six days”, the “impact on the inflammation severity, comparison of doses” value is “highest impact”.

Source of the values: patent US11229624B2, “FABP4 as a therapeutic target in skin diseases” (TICURE LTD., priority 2016, dated 2022).
